Experiments:
[1] = test system: peripheral channels; conditions: in vivo; cited from earlier work
[2] = molecular target: N-type calcium channels (Homo sapiens, UniProt Q00975); conditions: cited from earlier work
[3] = molecular target: P/Q-type channels (Homo sapiens, UniProt O00555); conditions: cited from earlier work
[4] = molecular target: N-type calcium channel (Rattus norvegicus, UniProt Q02294); assay type: binding
Chain of N-type calcium channel (Q02294 whole entry, looked up): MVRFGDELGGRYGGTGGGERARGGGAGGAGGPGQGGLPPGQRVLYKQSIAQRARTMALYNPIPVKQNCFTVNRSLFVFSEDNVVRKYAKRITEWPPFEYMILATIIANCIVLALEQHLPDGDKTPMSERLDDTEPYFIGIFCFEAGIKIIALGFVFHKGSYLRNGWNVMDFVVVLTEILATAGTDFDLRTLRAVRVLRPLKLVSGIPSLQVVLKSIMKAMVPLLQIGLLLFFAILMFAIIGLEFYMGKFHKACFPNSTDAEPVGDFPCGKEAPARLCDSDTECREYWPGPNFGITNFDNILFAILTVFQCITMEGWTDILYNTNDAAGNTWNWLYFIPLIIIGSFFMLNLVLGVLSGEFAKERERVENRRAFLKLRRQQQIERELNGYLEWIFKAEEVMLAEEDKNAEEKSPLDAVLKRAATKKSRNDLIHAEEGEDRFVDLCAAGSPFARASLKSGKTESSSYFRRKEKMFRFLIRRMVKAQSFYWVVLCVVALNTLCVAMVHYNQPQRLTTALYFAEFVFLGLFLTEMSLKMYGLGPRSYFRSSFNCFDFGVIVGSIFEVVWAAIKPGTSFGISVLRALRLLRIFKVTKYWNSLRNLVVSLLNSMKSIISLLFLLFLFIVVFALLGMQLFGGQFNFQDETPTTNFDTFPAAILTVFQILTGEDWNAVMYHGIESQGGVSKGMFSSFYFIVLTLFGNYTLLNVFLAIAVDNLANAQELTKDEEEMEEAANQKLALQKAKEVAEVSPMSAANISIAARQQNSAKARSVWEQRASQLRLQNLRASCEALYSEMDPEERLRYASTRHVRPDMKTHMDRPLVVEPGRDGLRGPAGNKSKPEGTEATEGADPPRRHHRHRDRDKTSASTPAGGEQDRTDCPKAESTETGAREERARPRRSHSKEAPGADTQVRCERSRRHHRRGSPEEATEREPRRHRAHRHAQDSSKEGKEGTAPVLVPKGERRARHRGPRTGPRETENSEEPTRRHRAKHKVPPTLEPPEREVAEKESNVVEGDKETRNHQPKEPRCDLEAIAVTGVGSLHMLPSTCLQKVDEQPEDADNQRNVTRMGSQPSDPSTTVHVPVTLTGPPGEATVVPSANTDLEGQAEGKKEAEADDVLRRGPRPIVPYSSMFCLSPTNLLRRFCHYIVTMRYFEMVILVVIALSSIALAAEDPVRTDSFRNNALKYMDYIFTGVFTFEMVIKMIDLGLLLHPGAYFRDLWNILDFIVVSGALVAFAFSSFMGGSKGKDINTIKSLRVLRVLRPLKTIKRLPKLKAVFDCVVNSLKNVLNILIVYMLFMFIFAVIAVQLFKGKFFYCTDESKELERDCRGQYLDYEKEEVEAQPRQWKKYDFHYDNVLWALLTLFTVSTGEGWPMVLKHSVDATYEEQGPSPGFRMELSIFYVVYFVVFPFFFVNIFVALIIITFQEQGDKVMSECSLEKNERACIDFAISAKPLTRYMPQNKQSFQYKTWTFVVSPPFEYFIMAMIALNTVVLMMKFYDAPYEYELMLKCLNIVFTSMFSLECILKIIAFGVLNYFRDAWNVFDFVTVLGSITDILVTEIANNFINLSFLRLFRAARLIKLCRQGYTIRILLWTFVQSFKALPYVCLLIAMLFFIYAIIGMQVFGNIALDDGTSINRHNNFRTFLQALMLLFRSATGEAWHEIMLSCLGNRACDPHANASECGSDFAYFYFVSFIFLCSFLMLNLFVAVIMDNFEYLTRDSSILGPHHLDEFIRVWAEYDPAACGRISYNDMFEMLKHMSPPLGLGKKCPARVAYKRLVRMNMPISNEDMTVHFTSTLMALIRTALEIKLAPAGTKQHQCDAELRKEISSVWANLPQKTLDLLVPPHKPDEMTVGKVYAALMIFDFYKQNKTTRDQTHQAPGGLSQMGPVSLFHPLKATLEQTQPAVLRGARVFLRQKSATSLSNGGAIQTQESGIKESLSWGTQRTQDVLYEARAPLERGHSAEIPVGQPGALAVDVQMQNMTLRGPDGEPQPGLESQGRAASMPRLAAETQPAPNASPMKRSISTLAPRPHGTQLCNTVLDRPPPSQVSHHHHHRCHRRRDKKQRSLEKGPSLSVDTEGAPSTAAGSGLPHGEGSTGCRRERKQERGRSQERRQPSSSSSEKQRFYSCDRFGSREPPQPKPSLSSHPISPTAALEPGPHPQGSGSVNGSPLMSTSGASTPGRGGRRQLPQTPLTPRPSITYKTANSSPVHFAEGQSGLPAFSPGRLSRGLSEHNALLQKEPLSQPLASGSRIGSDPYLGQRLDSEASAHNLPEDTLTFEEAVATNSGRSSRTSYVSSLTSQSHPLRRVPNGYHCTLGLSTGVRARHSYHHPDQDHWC

Chain of N-type calcium channels (Q00975 whole entry, looked up): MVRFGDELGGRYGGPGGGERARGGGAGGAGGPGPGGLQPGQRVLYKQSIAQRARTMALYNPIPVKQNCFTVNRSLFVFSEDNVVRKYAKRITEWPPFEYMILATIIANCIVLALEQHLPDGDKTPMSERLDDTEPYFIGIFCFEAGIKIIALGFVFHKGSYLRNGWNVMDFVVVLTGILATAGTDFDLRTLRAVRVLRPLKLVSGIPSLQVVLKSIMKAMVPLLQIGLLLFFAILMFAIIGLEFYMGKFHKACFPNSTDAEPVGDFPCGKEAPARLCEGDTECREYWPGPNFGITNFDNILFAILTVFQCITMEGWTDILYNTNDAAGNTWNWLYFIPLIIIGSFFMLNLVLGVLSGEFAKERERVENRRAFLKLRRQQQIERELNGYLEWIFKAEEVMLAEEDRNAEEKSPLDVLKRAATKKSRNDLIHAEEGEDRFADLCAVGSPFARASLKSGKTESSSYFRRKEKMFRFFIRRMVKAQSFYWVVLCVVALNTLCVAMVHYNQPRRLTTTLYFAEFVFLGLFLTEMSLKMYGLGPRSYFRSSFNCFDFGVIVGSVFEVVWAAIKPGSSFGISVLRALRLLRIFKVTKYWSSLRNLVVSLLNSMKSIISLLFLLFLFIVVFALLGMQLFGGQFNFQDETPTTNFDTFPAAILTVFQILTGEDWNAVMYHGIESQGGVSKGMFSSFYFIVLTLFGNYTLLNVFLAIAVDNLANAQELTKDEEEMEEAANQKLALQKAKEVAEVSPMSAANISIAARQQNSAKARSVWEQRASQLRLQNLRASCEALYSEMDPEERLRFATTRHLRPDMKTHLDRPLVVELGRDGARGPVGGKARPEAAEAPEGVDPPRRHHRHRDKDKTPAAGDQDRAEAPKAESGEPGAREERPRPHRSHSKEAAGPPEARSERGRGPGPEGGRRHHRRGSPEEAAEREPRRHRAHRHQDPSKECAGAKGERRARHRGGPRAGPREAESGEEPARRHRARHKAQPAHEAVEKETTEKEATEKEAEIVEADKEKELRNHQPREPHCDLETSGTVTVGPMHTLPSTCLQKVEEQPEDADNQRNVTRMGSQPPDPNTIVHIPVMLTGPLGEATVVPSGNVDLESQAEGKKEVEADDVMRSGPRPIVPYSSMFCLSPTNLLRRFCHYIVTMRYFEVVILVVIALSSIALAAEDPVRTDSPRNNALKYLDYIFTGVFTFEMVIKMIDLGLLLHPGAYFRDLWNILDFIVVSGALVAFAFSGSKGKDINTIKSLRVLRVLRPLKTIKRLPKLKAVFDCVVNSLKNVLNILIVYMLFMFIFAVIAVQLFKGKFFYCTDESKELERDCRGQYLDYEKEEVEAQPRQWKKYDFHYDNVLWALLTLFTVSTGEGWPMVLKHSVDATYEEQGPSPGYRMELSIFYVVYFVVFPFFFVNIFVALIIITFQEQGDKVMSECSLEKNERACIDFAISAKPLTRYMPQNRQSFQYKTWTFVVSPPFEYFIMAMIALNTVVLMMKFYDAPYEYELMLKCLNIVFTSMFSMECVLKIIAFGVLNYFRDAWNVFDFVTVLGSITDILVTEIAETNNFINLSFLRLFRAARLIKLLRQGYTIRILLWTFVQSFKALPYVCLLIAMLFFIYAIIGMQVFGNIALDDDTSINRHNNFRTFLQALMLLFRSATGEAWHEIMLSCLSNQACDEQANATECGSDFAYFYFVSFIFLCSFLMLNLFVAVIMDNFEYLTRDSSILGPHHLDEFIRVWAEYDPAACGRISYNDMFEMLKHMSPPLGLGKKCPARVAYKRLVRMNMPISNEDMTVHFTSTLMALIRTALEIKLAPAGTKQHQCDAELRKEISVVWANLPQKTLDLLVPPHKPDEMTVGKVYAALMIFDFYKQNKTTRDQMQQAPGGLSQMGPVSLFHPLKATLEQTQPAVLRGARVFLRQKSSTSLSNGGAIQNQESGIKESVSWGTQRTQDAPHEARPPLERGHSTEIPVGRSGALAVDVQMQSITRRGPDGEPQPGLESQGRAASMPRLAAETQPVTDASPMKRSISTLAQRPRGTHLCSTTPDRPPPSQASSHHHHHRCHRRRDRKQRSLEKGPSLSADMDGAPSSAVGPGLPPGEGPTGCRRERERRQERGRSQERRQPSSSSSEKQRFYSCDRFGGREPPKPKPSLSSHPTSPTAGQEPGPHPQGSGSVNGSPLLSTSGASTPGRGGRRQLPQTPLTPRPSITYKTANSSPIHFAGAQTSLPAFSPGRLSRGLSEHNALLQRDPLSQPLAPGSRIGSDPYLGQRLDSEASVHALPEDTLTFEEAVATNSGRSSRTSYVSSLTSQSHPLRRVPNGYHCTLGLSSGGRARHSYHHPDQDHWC

Compound | affinity / selectivity for N-type calcium channels [2] | potency for N-type calcium channel in receptor binding assays [4] | selectivity for N-type calcium channel over P/Q-type calcium channel in receptor binding assays [4] | further results
CSCC[C@@H]1NC(=O)[C@H](CC(C)C)NC(=O)[C@H](CCCNC(=N)N)NC(=O)[C@H](CO)NC(=O)[C@@H]2CSSC[C@@H]3NC(=O)[C@H](CO)NC(=O)CNC(=O)[C@H]([C@@H](C)O)NC(=O)[C@H](CSSC[C@H](N)C(=O)N[C@@H](CCCCN)C(=O)NCC(=O)N[C@@H](CCCCN)C(=O)NCC(=O)N[C@@H](C)C(=O)N[C@@H](CCCCN)C(=O)N2)NC(=O)[C@H](CSSC[C@@H](C(N)=O)NC(=O)[C@H](CCCCN)NC(=O)CNC(=O)[C@H](CO)NC(=O)[C@H](CCCNC(=N)N)NC3=O)NC(=O)[C@H](CC(=O)O)NC(=O)[C@H](Cc2ccc(O)cc2)NC1=O [SNX-111] | – | – | – | hypotension [1]: cause hypotension
CKGKOAPCRKTMYDCCSGSCGRRGKC [MVIIC] | low affinity | – | – | binding to P/Q-type channels [3]: bind strongly
CKSKGAKCSKLMYDCCSGSCSGTVGRC [CVID] | – | high potency | high selectivity | –
CKSKGAKCSRLMYDCCSGSCSGTVGRC [R^10-CVID] | – | high potency | high selectivity | –
CKSOGSSCSOTSYNCCRSCNOYTKRCY [GVIA] | high level of selectivity | – | – | antagonism of N-type calcium channels [2]: potent antagonist; reversibility of binding to N-type calcium channels [2]: irreversible

Reference: patent US7101849B1 (The University of Queensland, priority 1998, dated 2006)
